With `CC(C)NCC(O)c1ccc2c(c1)OCO2` (stereo not given), the melting point (usually the temperature, or range, at which the solid turns liquid) is 117 to 118 °C.

Regarding `C=C(C)CSCC(C)C1CC=C2C3=C(CCC21C)C1(C)CCC(O)C(C)(C)C1CC3` (stereo not given), the melting point is 128 to 132 °C. Molecule `COC(=O)c1cccc([N+](=O)[O-])c1C` had a melting point of 64.2 to 65.5 °C. The molecule `Nc1nc(N)c2cc(Oc3ccc(Cl)cc3)ccc2n1` gave a melting point of 226 to 228 °C. With `CSC(SC)=C(Cl)c1cccc(C(=O)c2ccccc2)c1`, the melting point was 94 to 96 °C.

Molecule `NC(=O)c1ccc(N[C@H]2CC[C@H](N)CC2)cc1F` yielded a melting point of 166 to 167 °C. Next, `O=C(O)c1cnncc1C(=O)c1cc(F)ccc1F`: 202 to 205 °C; `O=C1NC(=S)NC(=O)C1=Cc1ccc([N+](=O)[O-])s1`: 285 °C; `CCOC(=O)c1c([N+](=O)[O-])c(-c2ccc(Cl)cc2)n(OC)c1C(F)(F)F`: 90 to 92 °C. Take `O=C1O[C@](CCc2cccc(O)c2)(C2CCCC2)CC(O)=C1N(c1ccccc1)c1ccccc1`: the melting point was 90 to 92 °C. The molecule `COc1cc(OCc2ccccc2)c(C23CC4CC(CC(C4)C2)C3)cc1Br` gave a melting point of 124 to 126 °C. `Cc1ccc(Cl)c(-c2ccc(S(=O)(=O)N3c4ccccc4CC3C(=O)NCCOc3ccc(CC(=O)O)cc3)cc2)c1` (stereo not given) yielded a melting point of 77 to 81 °C. Next, `CCN1CCN2C(=O)c3ccccc3C12c1ccccc1` (stereo not given): 122 to 124 °C; `CC(C)(OCc1cc2cc(C(F)(F)F)ccc2n1S(=O)(=O)c1ccc2ncsc2c1)C(=O)O`: 98 to 100 °C; `O=C(c1cc2ccc3[nH]ccc3c2[nH]1)N1CCC(Cc2ccccc2)CC1`: 186 to 188 °C. Turning to `O=C(O)c1cc(-c2nccs2)[nH]c1C(CC1CCOCC1)c1ccc(S(=O)(=O)C2CC2)cc1` (stereo not given), the melting point is 153 to 155 °C. In the case of `COc1nc(OC)c(C(C)C)c(C(C#N)c2cc(C)cc(Br)c2)n1` (stereo not given), the melting point fell in the range of 123 to 124 °C.

The molecule `O=C(O)Cc1ccc(C(=O)c2ccc(Cl)cc2)n1Cc1ccccc1` registered a melting point of 162 to 163 °C.

`COc1ccc2cc([C@H](C)C(=O)OCCC(C)(C)C)ccc2c1` yielded a melting point of 92 to 94 °C. With `O=[N+]([O-])c1ccc(-c2ccc(OCCCCCCO)cc2)cc1`, the melting point is 117 to 119 °C. In the case of `COc1ccn2nc(-c3ccc(F)cc3)c(-c3ccc(=O)n(C)n3)c2c1`, the melting point lay in the range of 221 to 222 °C. `CCOCc1nc2c(N)nc3cc(OCc4nc5ccccc5s4)ccc3c2n1CC(C)(C)NS(C)(=O)=O`: the melting point lay in the range of 258 to 259 °C. In the case of `Cc1cc(S(=O)(=O)NCC(C)C)c2c(C)ccc(C(C)C)cc1-2`, the melting point was 117 to 118 °C. Molecule `O=c1ccc2ccc(CNCCNc3ccccc3)cc2o1` returned a melting point of 81 to 83 °C. The same measure for `CC(=O)OCc1c(C(=O)C(=O)O)c2cc(-c3cccc(C)c3)ccc2n1Cc1ccc(C)cc1`: 89 to 90 °C. For `Nc1ccc(-c2ccncc2)cc1`, the melting point lay within 232 to 234 °C. As for `CN(C)C1CCc2[nH]c3c(CO)cccc3c2C1` (stereo not given), the melting point lay within 227 to 230 °C. `C=CCOc1ccc([C@H]2CCN(C(=O)OC(C)(C)C)C[C@@H]2O)cc1` (racemic) yielded a melting point of 113 °C. `O=C(c1ccccc1)C1CNC(=S)C1` (stereo not given) displayed a melting point of 110 to 112 °C. For the molecule `CC(=O)NCc1ccc(-c2csc(NC(C)=O)n2)s1`, the melting point is 251 °C.

The molecule `CNC(=O)N(C)c1cc(C(C)(C)C)on1` registered a melting point of 150 to 151 °C. `CS(=O)(=O)N(Cc1ccc(F)cc1)c1cccnc1`: the melting point was 93 to 95 °C. In turn, `Cc1c(C(=O)O)ccc2c1[nH]c1ccccc12` came in with a melting point above 240 °C. `c1ccc2c(c1)CCc1ccccc1C2=NCC1CC1` gave a melting point of 98 to 99 °C. Take `COc1ncc(C(=O)Nc2c(F)cncc2F)cc1OC1CCCC1`: the melting point fell in the range of 210 to 211 °C. Regarding `CS(=O)c1nnc(-c2ccc3occ(-c4cccc(OC(F)(F)F)c4)c3c2)o1` (stereo not given), the melting point fell in the range of 98 to 99 °C. The same measure for `C#Cc1ccc(NC(=O)CCCC(=O)O)cc1`: 135 to 140 °C; for `CCCSc1sc(C(N)=O)c2c1-c1c(cnn1C)CC2`: 112 to 113 °C. Consider `CCc1ccc(Nc2c(C(=O)NOC(CO)CO)ccc(F)c2F)c(F)c1`, for which the melting point is 91 to 93 °C. `CCc1nn(-c2ccc(F)cc2)c2c1C(C)N(C)C2=O` (stereo not given): the melting point was 65 °C. The molecule `O=C1CCC2=C(CCc3cc(Cl)c(Cl)cc32)N1` registered a melting point of 260 to 261 °C. Molecule `CN(C)C=C1CCN(C(=O)c2ccc([N+](=O)[O-])cc2)c2ccccc2C1=O` showed a melting point of 180 to 183 °C. As for `CCOC(=O)C1=C(C(=O)OCC)SCCS1`, the melting point was 32 to 36 °C. With `CN1CCN(c2c3c(nc4cc(Cl)ccc24)CCN(C)C3)CC1`, the melting point was in the range of 114 to 115 °C. The molecule `CS(=O)(=O)N1CCN(C(=N)Nc2ccccc2-c2ccccc2)CC1` yielded a melting point of 178 to 180 °C.

`CNC(=O)c1ccc(C2C(C(=O)c3ccc(C)cc3)=C(O)C(=O)N2c2ncc(S(=O)(=O)c3ccc([N+](=O)[O-])cc3)s2)cc1` (stereo not given): the melting point lay in the range of 195 to 197 °C. Turning to `CC(C(=O)OC1(C)CCCCC1)c1ccc(N)cc1` (stereo not given), the melting point is 85 to 87 °C. Next, `COC[C@H]1CN(c2ccc(CCCC(=O)C3CCCCC3)cc2)C(=O)O1`: 86 °C; `COc1ccc(C=O)c(Br)c1Oc1ccc([N+](=O)[O-])cc1`: 115 to 117 °C; `Cc1cccc(-c2c[nH]nc2-c2ccnc(-c3ccc(OCC(=O)N4CCOCC4)cc3)c2)n1`: 170 °C. In turn, `Cn1ncc2c(c1=O)SCCNC2C(=O)Cc1ccccc1` (stereo not given) showed a melting point of 133 °C. The molecule `COC(=O)[C@@H]1CSCN1C(=O)/C=C\Sc1ccccc1` registered a melting point of 126 to 128 °C. As to `O=C(Nc1cccnc1)N1CCc2cc(Cl)ccc21`, the melting point was in the range of 204 to 205 °C. `CN1CCN(c2nc3sc4c(NCCc5ccccn5)ncnc4c3c3c2COC(C)(C)C3)CC1` displayed a melting point of 227 to 229 °C.

`CCCCCCCCCC(=O)SCC(C)(C(=O)Nc1cccc(C(=O)O)c1C)c1ccccc1` (stereo not given) yielded a melting point of 105 to 111 °C.

With `CN(CC(=O)O)C(=O)C=Cc1ccccc1`, the melting point lay within 177 to 179 °C. In turn, `COc1cc(OC)c(C2CCN(C)CC2OC(C)=O)c(Oc2cccs2)c1C(C)=O` (stereo not given) showed a melting point of 153 to 154 °C. On to `CCCCNC1=CC(=O)c2c(OC)ccc(OC)c2C1=O`, for which the melting point was in the range of 104 to 105 °C. Take `O=C1NC(=O)C(Cc2ccc(OCCn3ccc4ccccc43)cc2)S1` (stereo not given): the melting point was 42.3 to 44.6 °C. `O=C1C=CC2=C3OC=CC=C3C=CC2O1` (stereo not given) had a melting point of 96 to 98 °C. Next, `COc1ccc2c(c1)N(C1=CCCN1C1=NCCC1)c1ccccc1S2`: 151 to 153 °C.

In the case of `CC(C)(C)OC(=O)Nc1ccc(Nc2n[nH]c(N)c2C#N)cc1`, the melting point fell in the range of 166 to 168 °C. The molecule `COC(=O)c1cc2c3ccccc3n(-c3ccccc3)c2s1` displayed a melting point of 147 to 149 °C. Regarding `COc1cc(C(=O)NS(=O)(=O)c2ccccc2C)ccc1Cc1c[nH]c2ccc(NC(=O)CC3CCCC3)cc12`, the melting point lay within 248 to 250 °C. `CCCCCCCCCCCCCCCCC(C)(C)C(=O)O`: the melting point lay within 50 to 53 °C.

(Values after a melting point compilation (Tetko et al.; mined from patent text by program, amines drawn as free bases though some values may be those of a salt).)
